According to PMC2717426, “The effect of exogenous glucagon-like peptide-1 on the glycaemic response to small intestinal nutrient in the critically ill: a randomised double-blind placebo-controlled cross over study” (Critical Care, 2009):

Key:
[1] = Plasma insulin (ELISA) and insulin/glucose ratio during GLP-1 infusion; format: in vivo, critically ill patients; conditions: GLP-1 1.2 pmol/kg/min i.v., mean ± SEM, n = 7
Text: Patients were studied on two consecutive days, in which they received intravenous GLP-1 or placebo in a randomised, double-blind fashion. Twelve hours prior to the study, a naso-duodenal feeding catheter was inserted and confirmed via abdominal x-ray. On each study day enteral feeding was ceased at least four hours prior to the commencement of the study. Exogenous insulin (Actrapid, Novo-Nordisk, Copenhagen, Denmark) infusion was ceased at least two hours before the commencement of the study drug. Patient weight was provided by a relative and/or estimated by a dietician. […] The study investigators were blinded to each infusion, which were concealed in a glass bottle covered by black plastic. […]
Blood glucose was measured at the bedside using a portable glucometer (Medisense Optimum, Abbott, Melbourne, Australia). […] Plasma insulin was measured by ELISA (Diagnostics Systems Laboratories, Webster, Texas, USA) with an inter-assay coefficient of variation (CV) of 6.2%.
Data are presented as mean ± standard error of the mean. Area under the curve (AUC) was calculated using the trapezoidal rule. […] The ratios of insulin/glucose were calculated, as described previously. […] The difference between intervention and placebo was assessed using paired samples; Student's paired t-test and repeated measures analysis of variance. Data were evaluated for potential carry over effect. […]

[2] = Total plasma GLP-1 concentration (radioimmunoassay) during GLP-1 infusion; format: in vivo, critically ill patients
Text: (§1) Patients were studied on two consecutive days, in which they received intravenous GLP-1 or placebo in a randomised, double-blind fashion. Twelve hours prior to the study, a naso-duodenal feeding catheter was inserted and confirmed via abdominal x-ray. On each study day enteral feeding was ceased at least four hours prior to the commencement of the study. Exogenous insulin (Actrapid, Novo-Nordisk, Copenhagen, Denmark) infusion was ceased at least two hours before the commencement of the study drug. Patient weight was provided by a relative and/or estimated by a dietician. […] The study investigators were blinded to each infusion, which were concealed in a glass bottle covered by black plastic. […] At t = 30 minute Ensure® (Abbott, Melbourne, Australia), a mixed nutrient liquid (64% carbohydrate, 1 kcal/ml), was delivered continuously into the small intestine at a rate of 1.5 ml/min for four hours (i.e. t = 30 to 270 min).
(§2) Blood glucose was measured at the bedside using a portable glucometer (Medisense Optimum, Abbott, Melbourne, Australia). Blood was collected, separated by centrifugation and the resulting plasma was stored at -70° until assayed for hormone concentrations. Plasma insulin was measured by ELISA (Diagnostics Systems Laboratories, Webster, Texas, USA) with an inter-assay coefficient of variation (CV) of 6.2%.
(§3) Data are presented as mean ± standard error of the mean. Area under the curve (AUC) was calculated using the trapezoidal rule. […] The ratios of insulin/glucose were calculated, as described previously. Statistical analyses were performed using SPSS (Version 15.0, Chicago, Illinois, USA). Distribution and sensitivity analysis, using nonparametric analyses, allowed parametric testing of data. The difference between intervention and placebo was assessed using paired samples; Student's paired t-test and repeated measures analysis of variance. Data were evaluated for potential carry over effect. The null hypothesis was rejected at the 0.05 significance.

[3] = GLP-1 infusion at 1.2 pmol/kg/min; postoperative patients with type 2 diabetes; cited from earlier work
Text: Hyperglycaemia in critically ill patients, not previously known to have diabetes, is associated with poorer outcomes than in patients with pre-existing diabetes. […] Insulin infusions were ceased two hours before the commencement of the study to ensure clearance of exogenous insulin. Given t ...

[4] = Tolerability of the study infusion; format: in vivo, critically ill patients; conditions: GLP-1 1.2 pmol/kg/min i.v. over 270 minutes; all 7 patients
Text: as §1

[5] = Plasma glucagon concentration (radioimmunoassay) during GLP-1 infusion; format: in vivo, critically ill patients; conditions: GLP-1 1.2 pmol/kg/min i.v.; trapezoidal rule; mean ± SEM, n = 7
[6] = Blood glucose response to small intestinal nutrient infusion during intravenous GLP-1 infusion (bedside glucometer); format: in vivo, critically ill patients
Description: Seven critically ill adult patients (four males, three females, age range 28 to 76 years), predicted to remain mechanically ventilated for more than 48 hours, were studied. Exclusion criteria included pregnancy, pre-existing diabetes, contraindication to enteral feeding or post-pyloric catheter insertion, and previous surgery on the oesophagus, stomach or duodenum.
as §1, §2, §3

[7] = GLP-1 1.2 pmol/kg/min i.v., total GLP-1, radioimmunoassay, mean ± SEM, n = 7
[8] = GLP-1 1.2 pmol/kg/min i.v. t = 0-270 min, intra-duodenal Ensure 1.5 kcal/min t = 30-270 min, mean ± SEM, n = 7

## GLP-1-(7–36) amide
[1]; entire study period, trapezoidal rule
  Plasma insulin AUC0–270 min: 16,203 ± 5193 mU/l min
[1]; intra-duodenal nutrient, ELISA
  Plasma insulin, t = 270 min: 79 ± 21 mU/l
[2]; GLP-1 1.2 pmol/kg/min i.v. for 270 min, trapezoidal rule, mean ± SEM, n = 7
  Plasma GLP-1 AUC0–270 min: 31,659 ± 4203 pmol/l min
[2]; GLP-1 1.2 pmol/kg/min i.v. infusion
  Time after which steady state plasma GLP-1 concentrations were achieved: 30 min
[2]; [7]
  Plasma GLP-1 concentration, t = 30 min: 124 ± 15 pmol/L
  Plasma GLP-1 concentration, t = 90 min: 131 ± 13 pmol/L
[3]
  Effect on fasting glycaemia: achieved fasting normoglycaemia
  Tolerability: well tolerated
[4]
  Tolerability of the study: well tolerated
[5]
  Plasma glucagon AUC0–270 minutes: 22,786 ± 6040 pmol/l min
[6]; GLP-1 1.2 pmol/kg/min i.v. from t = 0, before start of small intestinal nutrient, vs placebo
  Effect on blood glucose prior to nutrient infusion, t = 30 min: no effect
[6]; [8]
  Blood glucose concentration, t = 180 min: 9.3 ± 0.6 mmol/L
  Peak blood glucose: 10.1 ± 0.7 mmol/L
[6]; GLP-1 1.2 pmol/kg/min i.v., intra-duodenal Ensure 1.5 kcal/min t = 30-270 min, trapezoidal rule, mean ± SEM, n = 7
  Overall glycaemic response, blood glucose AUC30–270 min: 2077 ± 144 mmol·min/L
[6]; GLP-1 study day, prior to infusion, arterial blood, glucometer, mean ± SEM, n = 7
  Baseline blood glucose concentration, t = 0 min: 7.5 ± 0.4 mmol/L
